Assay results as given in PubChem BioAssay AID248 (DTP/NCI, 2004).
Where “and” joins values, the source holds several entries; their conditions need not be identical. Equal entries are not always repeated. Toxic doses and inconclusive results are not listed. Cut-off read from the data, not from the text of the source: active = T/C of 150% or more; inactive = T/C below 125%.

System: L1210 leukemia ip in BDF1 mice, survival T/C
Assay: NCI In Vivo Anticancer Drug Screen. Data for tumor model L1210 Leukemia (intraperitoneal) in B6D2F1 (BDF1) mice
Conditions: endpoint: mean survival time, higher = longer survival
Method in brief: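 Survival endpoint. Drug-treated group vs vehicle group, expressed as T divided by C. Tumor passaged by transplantation.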

[1] = dose: 100.0 mg/kg/injection, schedule: Q01DX009 (ip), vehicle: Klucel (hydroxypropylcellulose) (HPC)
[2] = dose: 200.0 mg/kg/injection, schedule: Q01DX009 (ip), vehicle: Klucel (hydroxypropylcellulose) (HPC)
[3] = dose: 400.0 mg/kg/injection, schedule: Q01DX009 (ip), vehicle: Klucel (hydroxypropylcellulose) (HPC)
[4] = dose: 100.0 mg/kg/injection, schedule: Q04DX003 (ip), vehicle: saline with Tween-80
[5] = dose: 200.0 mg/kg/injection, schedule: Q04DX003 (ip), vehicle: saline with Tween-80
[6] = dose: 400.0 mg/kg/injection, schedule: Q04DX003 (ip), vehicle: saline with Tween-80
[7] = dose: 100.0 mg/kg/injection, schedule: Q04DX003 (ip), vehicle: saline
[8] = dose: 100.0 mg/kg/injection, schedule: Q01DX009 (ip), vehicle: saline with Tween-80
[9] = dose: 200.0 mg/kg/injection, schedule: Q01DX009 (ip), vehicle: saline with Tween-80
[10] = dose: 400.0 mg/kg/injection, schedule: Q01DX009 (ip), vehicle: saline with Tween-80
[11] = dose: 50.0 mg/kg/injection, schedule: Q04DX003 (ip), vehicle: saline
[12] = dose: 100.0 mg/kg/injection, schedule: Q01DX001 (ip), vehicle: saline
[13] = dose: 200.0 mg/kg/injection, schedule: Q01DX001 (ip), vehicle: saline
[14] = dose: 200.0 mg/kg/injection, schedule: Q04DX003 (ip), vehicle: saline
[15] = dose: 12.5 mg/kg/injection, schedule: Q04DX003 (ip), vehicle: saline
[16] = dose: 25.0 mg/kg/injection, schedule: Q04DX003 (ip), vehicle: saline
[17] = dose: 100.0 mg/kg/injection, schedule: Q04DX003 (ip), vehicle: Klucel (hydroxypropylcellulose) (HPC)
[18] = dose: 200.0 mg/kg/injection, schedule: Q04DX003 (ip), vehicle: Klucel (hydroxypropylcellulose) (HPC)
[19] = dose: 400.0 mg/kg/injection, schedule: Q04DX003 (ip), vehicle: Klucel (hydroxypropylcellulose) (HPC)
[20] = dose: 100.0 mg/kg/injection, schedule: Q01DX001 (ip), vehicle: carboxymethylcellulose (CMC)
[21] = dose: 200.0 mg/kg/injection, schedule: Q01DX001 (ip), vehicle: carboxymethylcellulose (CMC)
[22] = dose: 75.0 mg/kg/injection, schedule: Q01DX001 (ip), vehicle: saline
[23] = dose: 150.0 mg/kg/injection, schedule: Q01DX001 (ip), vehicle: saline
[24] = dose: 300.0 mg/kg/injection, schedule: Q01DX001 (ip), vehicle: saline

Measured: T/C

CNC(C)Cc1ccccc1 (stereo not given)
inactive: dose: 1.87 mg/kg/injection, schedule: Q04DX003 (ip), vehicle: saline 103 % of control and 116 % of control | dose: 3.75 mg/kg/injection, schedule: Q01DX009 (ip), vehicle: saline 95 % of control | dose: 3.75 mg/kg/injection, schedule: Q04DX003 (ip), vehicle: saline 106 % of control and 116 % of control | dose: 7.5 mg/kg/injection, schedule: Q01DX009 (ip), vehicle: saline 103 % of control and 98 % of control | dose: 7.5 mg/kg/injection, schedule: Q04DX003 (ip), vehicle: saline 108 % of control and 97 % of control | dose: 15.0 mg/kg/injection, schedule: Q01DX009 (ip), vehicle: saline 100 % of control and 96 % of control | dose: 15.0 mg/kg/injection, schedule: Q04DX003 (ip), vehicle: saline 95 % of control and 111 % of control | dose: 30.0 mg/kg/injection, schedule: Q01DX009 (ip), vehicle: saline 109 % of control and 112 % of control | dose: 30.0 mg/kg/injection, schedule: Q04DX003 (ip), vehicle: saline 92 % of control and 111 % of control | dose: 60.0 mg/kg/injection, schedule: Q01DX009 (ip), vehicle: saline 107 % of control and 108 % of control | dose: 60.0 mg/kg/injection, schedule: Q04DX003 (ip), vehicle: saline 95 % of control

COc1cc(OC)c(NC(=O)/C=C/c2ccccc2)cc1Cl
inactive: [1] 92 % of control | [2] 100 % of control | [3] 95 % of control

O=C(Cl)c1ccc([N+](=O)[O-])cc1
inactive: [4] 102 % of control | [5] 101 % of control

O=C(Nc1cc(NC(=O)Nc2cccc(C3=NCCN3)c2)cc(C(=O)Nc2ccccc2)c1)Nc1cccc(C2=NCCN2)c1
inactive: dose: 15.0 mg/kg/injection, schedule: Q01DX Z (ip), vehicle: carboxymethylcellulose (CMC) 94 % of control | dose: 30.0 mg/kg/injection, schedule: Q01DX Z (ip), vehicle: carboxymethylcellulose (CMC) 103 % of control | dose: 60.0 mg/kg/injection, schedule: Q01DX Z (ip), vehicle: carboxymethylcellulose (CMC) 97 % of control | dose: 120.0 mg/kg/injection, schedule: Q01DX Z (ip), vehicle: carboxymethylcellulose (CMC) 107 % of control and 91 % of control | dose: 240.0 mg/kg/injection, schedule: Q01DX Z (ip), vehicle: carboxymethylcellulose (CMC) 104 % of control

CCOC(=O)C1C=CCCC1 (stereo not given)
inactive: [4] 91 % of control | [5] 102 % of control | [6] 94 % of control

CC[C@H]1CN2CCc3cc(OC)c(OC)cc3[C@@H]2C[C@@H]1C[C@@H]1c2cc(OC)c(OC)cc2CCN1N=O
inactive: [7] 100 % of control

CCc1nc(-c2ccccc2)c(-c2ccccc2)[nH]1
inactive: [8] 90 % of control | [9] 98 % of control | [10] 87 % of control

O=C(Nc1ccccc1)C1C2C=CC(CC2)C1C(=O)Nc1ccccc1 (stereo not given)
inactive: [4] 98 % of control | [5] 107 % of control | [6] 98 % of control

CC(C)NCC(O)c1cccc(O)c1 (stereo not given)
inactive: [11] 101 % of control | [12] 98 % of control | [7] 101 % of control | [13] 97 % of control | [14] 104 % of control

O=C(NC(=S)Nc1cccc2ccc(O)cc12)c1ccc(Cl)cc1Cl
inactive: dose: 100.0 mg/kg/injection, schedule: Q01DX001 (ip), vehicle: saline with Tween-80 101 % of control | [8] 94 % of control and 106 % of control | dose: 100.0 mg/kg/injection, schedule: Q04DX002 (ip), vehicle: saline with Tween-80 103 % of control and 92 % of control | [4] 100 % of control | dose: 200.0 mg/kg/injection, schedule: Q01DX001 (ip), vehicle: saline with Tween-80 92 % of control | [9] 98 % of control and 101 % of control | dose: 200.0 mg/kg/injection, schedule: Q04DX002 (ip), vehicle: saline with Tween-80 95 % of control and 103 % of control | [5] 97 % of control | dose: 400.0 mg/kg/injection, schedule: Q01DX001 (ip), vehicle: saline with Tween-80 103 % of control | [10] 103 % of control and 108 % of control | dose: 400.0 mg/kg/injection, schedule: Q04DX002 (ip), vehicle: saline with Tween-80 97 % of control and 98 % of control | [6] 92 % of control

CCOC(=O)N1CC2CCC(C1)N2C
inactive: [15] 103 % of control | [16] 106 % of control | [11] 101 % of control

CN(C)CCSC(=O)N1c2ccccc2C(C)(C)c2ccccc21
inactive: dose: 12.5 mg/kg/injection, schedule: Q01DX009 (ip), vehicle: saline 94 % of control | dose: 25.0 mg/kg/injection, schedule: Q01DX009 (ip), vehicle: saline 100 % of control | [16] 91 % of control | dose: 50.0 mg/kg/injection, schedule: Q01DX009 (ip), vehicle: saline 111 % of control | [11] 102 % of control | [7] 96 % of control | [14] 90 % of control

N#CCC[CH2][Sn]([Br])([Br])[c]1ccccc1
inactive: dose: 3.12 mg/kg/injection, schedule: Q04DX003 (ip), vehicle: saline 91 % of control | dose: 6.25 mg/kg/injection, schedule: Q04DX003 (ip), vehicle: saline 96 % of control | [15] 91 % of control

CCc1ccccc1NC(=O)NC(C)C
inactive: [1] 98 % of control | [17] 90 % of control | [2] 91 % of control | [18] 97 % of control | [3] 95 % of control | [19] 92 % of control

CCCCCCCCC[As](=O)(O)O
inactive: dose: 1.5 mg/kg/injection, schedule: Q01DX001 (ip), vehicle: carboxymethylcellulose (CMC) 98 % of control | dose: 3.0 mg/kg/injection, schedule: Q01DX001 (ip), vehicle: carboxymethylcellulose (CMC) 104 % of control | dose: 60.0 mg/kg/injection, schedule: Q01DX001 (ip), vehicle: carboxymethylcellulose (CMC) 109 % of control

NC(=S)N/N=C/c1c(O)ccc2ccccc12
inactive: [20] 96 % of control | [21] 94 % of control | dose: 400.0 mg/kg/injection, schedule: Q01DX001 (ip), vehicle: carboxymethylcellulose (CMC) 94 % of control

O=C1NNCc2c1sc1ccccc21
inactive: [12] 98 % of control | [13] 98 % of control | dose: 400.0 mg/kg/injection, schedule: Q01DX001 (ip), vehicle: saline 102 % of control

O=C(COc1c(Cl)cc(Cl)cc1Cl)NCc1ccc(Cl)cc1
inactive: [8] 100 % of control | [9] 109 % of control | [10] 101 % of control

O=C(O)c1ccc2c(c1Sc1ccccc1)C(=O)c1ccccc1C2=O
inactive: [22] 104 % of control | [23] 107 % of control | [24] 91 % of control

COC(=O)c1ccc([N+](=O)[O-])c(OC)c1
inactive: [22] 91 % of control | dose: 75.0 mg/kg/injection, schedule: Q04DX003 (ip), vehicle: saline 94 % of control | [23] 91 % of control | dose: 150.0 mg/kg/injection, schedule: Q04DX003 (ip), vehicle: saline 108 % of control | [24] 93 % of control | dose: 300.0 mg/kg/injection, schedule: Q04DX003 (ip), vehicle: saline 101 % of control

CCCCCCCCC1SC1CCCCCCCC(=O)N(C)c1ccccc1 (stereo not given)
inactive: [7] 97 % of control | [14] 99 % of control | dose: 400.0 mg/kg/injection, schedule: Q04DX003 (ip), vehicle: saline 94 % of control

O=C(NCCCl)NC1CCCCCCCCCCC1
inactive: [1] 98 % of control | [17] 100 % of control | [2] 97 % of control | [18] 102 % of control | [3] 89 % of control | [19] 102 % of control

Cc1c(Cl)cccc1NC(=O)CCl
inactive: [8] 97 % of control | [9] 103 % of control

Cc1cc(C)c(SSc2c(C)cc(C)cc2C)c(C)c1
inactive: dose: 50.0 mg/kg/injection, schedule: Q01DX001 (ip), vehicle: saline 106 % of control | [12] 104 % of control | [13] 100 % of control

COc1c2c(c3c(c1O)c(=O)c1ccccc1n3C)OCO2
inactive: dose: 50.0 mg/kg/injection, schedule: Q01DX001 (ip), vehicle: carboxymethylcellulose (CMC) 104 % of control | [20] 90 % of control | [21] 90 % of control
